US9173892B2, “Acadesine derivatives, products and compositions including same, therapeutic uses thereof, and methods for synthesizing same” (Universite Nice Sophia Antipolis, priority 2011, dated 2015)
Read-outs that look alike come from different tables or passages of the source. One block for each compound: values may come before it.

What was measured:
K562 cells [1] = assay: cell viability (XTT) of imatinib-sensitive K562 cells; assay type: cell-based, human; conditions: K562; for viability at 500 µM / IC50: Homo sapiens, XTT; for viability at 500 µM: 0.5 mM, read-out: percentage of viable cells; for IC50: dose-response 5, 10, 25 and 50 μM; for efficacy in dose-response experiment (number of viable cells): 5, 10, 25 and 50 μM, compounds effective at concentrations as low as 5 μM
Protocol: (§1) The K562 leukemic cell line is obtained from the pleural effusion of a patient with CML. This line is a good model for studying this disease. […] The K562 and ImaR cells are cultivated at 37° C. under 5% CO2 in an RPMI 1640 medium containing 5% fetal bovine serum and supplemented with sodium pyruvate and antibiotics (penicillin-streptomycin).
(§2) FIGS. 1 to 4 reflect the study of the cell viability.
(§3) After the addition of XTT reagent, the absorbance is measured at 490 nm.
as §3, §3
After adding XTT reagent, the absorbance is measured at 490 nm.

[2] = tested on: imatinib-resistant CML K562 cells; assay: tumor growth of imatinib-resistant CML K562 cells in athymic nude mice; assay type: in vivo; conditions: 1 mg/kg; for Mean weight of the mice on the day of sacrifice: control group 18.63, in g (unit assumed); for Mass of tumors at the end of the campaign (% vs. control): sum of tumor masses on the day of sacrifice
Protocol: The three compounds (86, 196 and 236) were tested at 1 mg/kg on the tumor growth of imatinib-resistant CML K562 cells in athymic nude mice. The tumors of the mice of each group are weighed on the day of sacrifice, and the sum of these masses constitutes a tumor growth index. This index is expressed as a percentage with respect to the growth of the control group (second line).

ImaR cells [3] = assay: cell viability (XTT) of imatinib-resistant ImaR cells; assay type: cell-based, human; conditions: for viability at 500 µM / IC50: Homo sapiens, XTT; for viability at 500 µM: 0.5 mM, 24 hours, read-out: percentage of viable cells; for efficacy in dose-response experiment (number of viable cells): 5, 10, 25 and 50 μM, compounds effective at concentrations as low as 5 μM; for IC50: dose-response 5, 10, 25 and 50 μM, 24 or 48 hours, Example 1 (Table 1 codes)
Protocol: as §1, §2, §3, §3

K562 cells [4] = assay: flow cytometry analysis of the cell cycle, K562 cells; assay type: cell-based, human; conditions: for proportion of cells in the G2/M phase: 24 hours, 82, 86, 112 at 2.5 μM, 15, 23, 191, 49 at 10 μM; for cells in phase G0/G1 / cells in the subG1 phase: 24 hours, imatinib 3 μM, 112 at 2.5 μM, 15, 23, 49 at 10 μM
Protocol: (§4) The x-axis of the graph of FIG. 9 corresponds to the quantity of DNA marked with propidium iodide while the y-axis corresponds to the number of cells. […] The nuclei are marked with propidium iodide, then the proportion of cells in the different phases of the cell cycle (subG1, G0/G1, S, G2/M) is determined.

ImaR cells [5] = assay: flow cytometry analysis of the cell cycle, ImaR cells; assay type: cell-based, human; conditions: for proportion of cells in the G2/M phase: 24 hours, 82, 86, 112 at 2.5 μM, 15, 23, 191, 49 at 10 μM; for cells in phase G0/G1 / cells in the subG1 phase: 24 hours, imatinib 3 μM, 112 at 2.5 μM, 15, 23, 49 at 10 μM
Protocol: as §4, with “nucleii” for “nuclei”

caspase-9 [6] = assay: caspase-9 activity (Ac-LEHD-AMC) in K562 cells; assay type: cell-based, human; conditions: for caspase-9 activity: K562, 24 hours, imatinib 3 μM, 112 2.5 μM, 15 and 23 10 μM; for pathway relaying the induced apoptosis: conclusion of Example 1, K562 and ImaR cells
Protocol: (§5) The cells are lyzed and the caspase-9 activities are measured using 10 μg of proteins and Ac-LEHD-AMC. The fluorescence emission at 460 nm resulting from the release of AMC is then recorded.

caspase-9 [7] = assay: caspase-9 activity (Ac-LEHD-AMC) in ImaR cells; assay type: cell-based, human; conditions: 24 hours, imatinib 3 μM, 112 2.5 μM, 15 and 23 10 μM
Protocol: as §5

K562 cells [8] = assay: western blot of apoptosis and autophagy markers, K562 cells; assay type: cell-based, human; conditions: for expression of p62/SQSTM1 / LC3 cleavage (LC3-I into LC3-II) / PARP cleavage (fragment at 85 kDa): K562, 24 hours; for expression of p62/SQSTM1 / LC3 cleavage (LC3-I into LC3-II): AICAR 1 mM; for expression of p62/SQSTM1: 82, 86, 112 at 2.5 μM, 15, 23, 191 at 10 μM; for LC3 cleavage (LC3-I into LC3-II): 82, 86 at 2.5 μM, 15, 23, 191, 49 at 10 μM; for PARP cleavage (fragment at 85 kDa): imatinib 3 μM, 112 at 2.5 μM, 15, 23, 49 at 10 μM; for type of programmed cell death induced: conclusion of Example 1, K562 and ImaR cells
Protocol: (§6) The cells are lyzed and 35 μg of proteins are separated by SDS-PAGE (12 or 14% polyacrylamide gel) and analyzed by western blot with antibodies specific to each of the markers.

ImaR cells [9] = assay: western blot of apoptosis and autophagy markers, ImaR cells; assay type: cell-based, human; conditions: 24 hours; for expression of p62/SQSTM1: AICAR 1 mM, 82, 86, 112 at 2.5 μM, 15, 23, 191 at 10 μM; for LC3 cleavage (LC3-I into LC3-II): AICAR 1 mM, 82, 86 at 2.5 μM, 15, 23, 191, 49 at 10 μM; for PARP cleavage (fragment at 85 kDa): imatinib 3 μM, 112 at 2.5 μM, 15, 23, 49 at 10 μM
Protocol: as §6

[10] = 48 hours, Example 2 (Table 2 codes)
[11] = 24 or 48 hours, Example 1 (Table 1 codes)

Structure (SMILES): CCOC(=O)c1nnn([C@@H]2O[C@H](COC(C)=O)[C@@H](OC(C)=O)[C@H]2OC(C)=O)c1C(=O)c1ccc(C)cc1 [Compound 32, 1′-(4-ethoxycarbonyl-5-p-toluoyl-[1,2,3]-triazol-1-yl)-2′,3′,5′-tri-O-acetyl-β-D-ribofuranose]
viability at 500 µM (K562 cells [1]; [10]): < 20%

IC50 (K562 cells [1]; [10]): ~5 µM
Structure (SMILES): CCCCCCC(=O)c1c(C(=O)OCC)nnn1[C@@H]1O[C@H](COC(C)=O)[C@@H](OC(C)=O)[C@H]1OC(C)=O [Compound 30, 1′-(4-ethoxycarbonyl-5-heptanoyl-[1,2,3]-triazol-1-yl)-2′,3′,5′-tri-O-acetyl-β-D-ribofuranose]

IC50 (K562 cells [1]; [10]): ~5 µM
Structure (SMILES): COC(=O)c1nnn([C@@H]2O[C@H](CO)[C@@H](O)[C@H]2O)c1I [Compound 21, 1′-(4-methoxycarbonyl-5-iodo-[1,2,3]-triazol-1-yl)-β-D-ribofuranose]
viability at 500 µM (K562 cells [1]; [10]): < 20%

Mean weight of the mice on the day of sacrifice [2]: 20.5
Structure (SMILES): CCOC(=O)C#Cc1c(C(=O)OCC)nnn1C1OC(COC(C)=O)C(OC(C)=O)C(OC(C)=O)C1OC(C)=O [Compound 196, 1′-(4-ethoxycarbonyl-5-ethyl propiolate-[1,2,3]-triazol-1-yl)-2′,3′,4′,6′-tetra-O-acetyl-β-D-glucopyranose]
inhibition of the tumor mass [2]: around 60%
Mass of tumors at the end of the campaign (% vs. control) [2]: 42 % vs. control

Structure (SMILES): CCCCCCCC#Cc1c(CCCCCCC)nnn1[C@@H]1O[C@H](COC(C)=O)[C@@H](OC(C)=O)[C@H]1OC(C)=O [Compound 176, 1′-(4-heptyl-5-(non-1-yn-1-yl)-[1,2,3]-triazol-1-yl)-2′,3′,5′-tri-O-acetyl-β-D-ribofuranose]
viability at 500 µM (K562 cells [1]; 24 hours): < 10%
viability at 500 µM (ImaR cells [3]): < 10%

IC50 (K562 cells [1]; [10]): ~5 µM
Structure (SMILES): OC[C@H]1O[C@@H](n2nnc(-c3ccccc3)c2I)[C@H](O)[C@@H]1O [Compound 24, 1′-(4-phenyl-5-iodo-[1,2,3]-triazol-1-yl)-β-D-ribofuranose]

Structure (SMILES): C#Cc1c(C(=O)OC)nnn1[C@@H]1O[C@H](CO)[C@@H](O)[C@H]1O [Compound 29, 1′-(4-methoxycarbonyl-5-ethynyl-[1,2,3]-triazol-1-yl)-β-D-ribofuranose]
viability at 500 µM (K562 cells [1]; [10]): < 20%

Mean weight of the mice on the day of sacrifice [2]: 20.14
Structure (SMILES): CCOC(=O)c1nnn([C@@H]2O[C@H](CO)[C@H]3OC(C)(C)O[C@H]32)c1-c1cccs1 [Compound 236, 1′-(4-ethoxycarbonyl-5-(2-thienyl)-[1,2,3]-triazol-1-yl)-2′,3′-O-isopropylidene-β-D-ribofuranose]
Mass of tumors at the end of the campaign (% vs. control) [2]: 60.3 % vs. control

IC50 (K562 cells [1]; [11]): ~10 µM
Structure (SMILES): CCOC(=O)c1nnn([C@@H]2O[C@H](COC(C)=O)[C@@H](OC(C)=O)[C@H]2OC(C)=O)c1Cl [Compound 15, 1′-(4-ethoxycarbonyl-5-chloro-[1,2,3]-triazol-1-yl)-2′,3′,5′-tri-O-acetyl-β-D-ribofuranose]
viability at 500 µM (K562 cells [1]; 24 hours): < 10%
efficacy in dose-response experiment (number of viable cells) (K562 cells [1]): particularly effective
efficacy in dose-response experiment (number of viable cells) (ImaR cells [3]): particularly effective
viability at 500 µM (ImaR cells [3]): < 10%
IC50 (ImaR cells [3]): ~10 µM
proportion of cells in the G2/M phase (K562 cells [4]): increase
cells in phase G0/G1 (K562 cells [4]): reduction
cells in the subG1 phase (K562 cells [4]): very pronounced accumulation
proportion of cells in the G2/M phase (ImaR cells [5]): increase
cells in phase G0/G1 (ImaR cells [5]): reduction
cells in the subG1 phase (ImaR cells [5]): very pronounced accumulation
caspase-9 activity (caspase-9 [6]): activation
pathway relaying the induced apoptosis (caspase-9 [6]): intrinsic pathway
caspase-9 activity (caspase-9 [7]): activation
expression of p62/SQSTM1 (K562 cells [8]): increase in the expression
LC3 cleavage (LC3-I into LC3-II) (K562 cells [8]): cleaved
PARP cleavage (fragment at 85 kDa) (K562 cells [8]): appearance of the characteristic cleavage fragment at 85 kDa
type of programmed cell death induced (K562 cells [8]): combination of the two types of mechanisms
expression of p62/SQSTM1 (ImaR cells [9]): increase in the expression
LC3 cleavage (LC3-I into LC3-II) (ImaR cells [9]): cleaved
PARP cleavage (fragment at 85 kDa) (ImaR cells [9]): appearance of the characteristic cleavage fragment at 85 kDa

IC50 (K562 cells [1]; [11]): ~2.5 µM
Mean weight of the mice on the day of sacrifice [2]: 18.43
Structure (SMILES): CCOC(=O)c1nnn([C@@H]2O[C@H](COC(C)=O)[C@@H](OC(C)=O)[C@H]2OC(C)=O)c1-c1ccccc1 [Compound 86, 1′-(4-ethoxycarbonyl-5-phenyl-[1,2,3]-triazol-1-yl)-2′,3′,5′-tri-O-acetyl-β-D-ribofuranose]
viability at 500 µM (K562 cells [1]; 24 hours): < 10%
efficacy in dose-response experiment (number of viable cells) (K562 cells [1]): particularly effective
efficacy in dose-response experiment (number of viable cells) (ImaR cells [3]): particularly effective
viability at 500 µM (ImaR cells [3]): < 10%
IC50 (ImaR cells [3]): ~2.5 µM
proportion of cells in the G2/M phase (K562 cells [4]): increase
proportion of cells in the G2/M phase (ImaR cells [5]): increase
expression of p62/SQSTM1 (K562 cells [8]): increase in the expression
LC3 cleavage (LC3-I into LC3-II) (K562 cells [8]): cleaved
type of programmed cell death induced (K562 cells [8]): autophagy alone
expression of p62/SQSTM1 (ImaR cells [9]): increase in the expression
LC3 cleavage (LC3-I into LC3-II) (ImaR cells [9]): cleaved
Mass of tumors at the end of the campaign (% vs. control) [2]: 69.6 % vs. control

IC50 (K562 cells [1]; [11]): ~2.5 µM
Structure (SMILES): CCOC(=O)C#Cc1c(C(=O)OCC)nnn1Cc1ccc(C)cc1 [Compound 112, 1-(4-methylbenzyl)-4-ethoxycarbonyl-5-ethyl propiolate-1,2,3-triazole]
viability at 500 µM (K562 cells [1]; 24 hours): < 10%
efficacy in dose-response experiment (number of viable cells) (K562 cells [1]): particularly effective
efficacy in dose-response experiment (number of viable cells) (ImaR cells [3]): particularly effective
viability at 500 µM (ImaR cells [3]): < 10%
IC50 (ImaR cells [3]): ~2.5 µM
cells in phase G0/G1 (K562 cells [4]): reduction
cells in the subG1 phase (K562 cells [4]): very pronounced accumulation
cells in phase G0/G1 (ImaR cells [5]): reduction
cells in the subG1 phase (ImaR cells [5]): very pronounced accumulation
caspase-9 activity (caspase-9 [6]): activation
pathway relaying the induced apoptosis (caspase-9 [6]): intrinsic pathway
caspase-9 activity (caspase-9 [7]): activation
expression of p62/SQSTM1 (K562 cells [8]): increase in the expression
PARP cleavage (fragment at 85 kDa) (K562 cells [8]): appearance of the characteristic cleavage fragment at 85 kDa
type of programmed cell death induced (K562 cells [8]): apoptosis alone
expression of p62/SQSTM1 (ImaR cells [9]): increase in the expression
PARP cleavage (fragment at 85 kDa) (ImaR cells [9]): appearance of the characteristic cleavage fragment at 85 kDa

Structure (SMILES): CCOC(=O)C#Cc1c(C(=O)OCC)nnn1Cc1ccc2ccccc2c1 [Compound 25]
viability at 500 µM (K562 cells [1]; 24 hours): < 10%
viability at 500 µM (ImaR cells [3]): < 10%

IC50 (K562 cells [1]; [11]): ~10 µM
IC50 (K562 cells [1]; [10]): ~5 µM
Structure (SMILES): CCOC(=O)c1nnn(Cc2ccc3ccccc3c2)c1I [Compound 23]
viability at 500 µM (K562 cells [1]; 24 hours): < 10%
viability at 500 µM (ImaR cells [3]): < 10%
IC50 (ImaR cells [3]): ~10 µM
